Patent US20220144915A1, “STABILIZATION OF PRANDIAL OR BASAL INSULIN ANALOGUES BY AN INTERNAL DISELENIDE BRIDGE” (THE TRUSTEES OF INDIANA UNIVERSITY, priority 2019, published 2022)

Legend:
[1] = side-chain -SH versus -SeH; cited from earlier work
[2] = system: MCF-7; assay: Mitogenicity: cyclin D1 / cyclin G2 mRNA by q-RT-rtPCR in MCF-7 cells; type: cell-based, human
Excerpt: Increased expression of the gene encoding cyclin D1 and decreased expression of the gene encoding cyclin G2 are characteristic of cellular proliferation in response to signaling by mitogenic insulin analogues or IGFs.
An assay for relative mitogenicity among insulin analogues is provided by transcriptional signaling leading to reciprocal regulation of the genes encoding cyclin D1 and cyclin G2 (Glidden, M. D., et al. (2018) J. Biol. Chem. 293: 47-68).

Molecule	pKa [1]	mitogenic signature (cyclin D1 activation, cyclin G2 repression) [2]
N[C@@H](CS)C(=O)O [Cys, cysteine]	approximately 8.3	–
N[C@@H](C[SeH])C(=O)O [Sec, selenocysteine]	approximately 5.2	–
IGF-1: mitogenic growth factor, positive control	–	stimulates cyclin D1 transcription and inhibits cyclin G2 transciption to a more marked extent
